Some results are limits rather than exact numbers.

Experiment [1] addresses T1, 5-LOX enzyme (Homo sapiens, UniProt P09917).
T1 construct: purchased MyBioSource MBS846911
T1 sequence (P09917 1-674): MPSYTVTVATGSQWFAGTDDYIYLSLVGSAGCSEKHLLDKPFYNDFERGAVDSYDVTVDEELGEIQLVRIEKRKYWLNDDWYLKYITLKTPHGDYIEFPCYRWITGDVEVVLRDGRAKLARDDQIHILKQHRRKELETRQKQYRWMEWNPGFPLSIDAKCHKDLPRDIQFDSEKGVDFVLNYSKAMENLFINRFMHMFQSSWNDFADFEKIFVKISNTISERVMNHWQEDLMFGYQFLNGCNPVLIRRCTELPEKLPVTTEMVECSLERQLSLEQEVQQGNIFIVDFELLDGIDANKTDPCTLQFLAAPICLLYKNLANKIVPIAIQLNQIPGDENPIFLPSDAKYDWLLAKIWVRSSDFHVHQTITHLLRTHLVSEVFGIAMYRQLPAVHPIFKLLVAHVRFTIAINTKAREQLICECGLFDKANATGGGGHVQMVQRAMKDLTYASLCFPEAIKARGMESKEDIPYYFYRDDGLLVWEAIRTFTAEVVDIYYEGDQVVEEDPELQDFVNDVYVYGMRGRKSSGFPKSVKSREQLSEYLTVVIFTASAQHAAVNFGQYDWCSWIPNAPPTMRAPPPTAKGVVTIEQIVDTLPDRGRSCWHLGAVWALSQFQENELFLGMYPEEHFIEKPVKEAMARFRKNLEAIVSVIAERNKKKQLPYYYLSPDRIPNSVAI
Nature of the experiment: Fluorometric 5-LOX inhibitor screening kit. It is filed as biochemical. To be noted: IC50 ± standard error. The method, then: The 5-LOX inhibitory activates of synthesized compounds were tested using a fluorometric 5-LOX inhibitor screening kit (MyBioSource, San Diego, CA, USA; Catalog Number: MBS846911). This assay is based on the fluorometric detection of the intermediate generated by the 5-LOX enzyme. The experiment was conducted according to the manufacturer’s instructions. […] The tested compounds were dissolved in DMSO. Test solutions were added to corresponding wells at an amount of 2 µL out of the final 100 µL reaction volume per well. […] The volume was adjusted to 40 µL in each well by adding 38 µL of LOX Assay Buffer. The Reaction Mix (containing LOX Assay Buffer, LOX Probe and 5-LOX Enzyme) was prepared according to the instructions and 40 µL of the Reaction Mix was added into each well. The plate was incubated at room temperature for 10 min before adding the substrate diluted in the LOX Assay Buffer (1:2500 dilution factor). The final substrate solution was added at an amount of 20 µL into each well using a multi-channel pipette to initiate all the reactions at the same time. […] The EC, SC, IC and tested compounds at all concentrations were analyzed in triplicates. Two points (T1 and T2) in the linear range of the plot were chosen and corresponding fluorescence values (RFU1 and RFU2) were obtained. The slope for all samples was calculated by dividing ΔRFU (RFU2-RFU1) by the time Δt (T2−T1). The percentage of inhibition was calculated according to the equation mentioned in Section 3.3.1.
(§1) Fluorescence measurements were performed on a BioTek Synergy LX multi-mode reader (Winooski, VT, USA).

Experiment [2] has as its target T2, COX-2 human recombinant enzyme (Homo sapiens, UniProt P35354).
T2 construct: purchased Abcam ab283401
T2 sequence (P35354 18-604): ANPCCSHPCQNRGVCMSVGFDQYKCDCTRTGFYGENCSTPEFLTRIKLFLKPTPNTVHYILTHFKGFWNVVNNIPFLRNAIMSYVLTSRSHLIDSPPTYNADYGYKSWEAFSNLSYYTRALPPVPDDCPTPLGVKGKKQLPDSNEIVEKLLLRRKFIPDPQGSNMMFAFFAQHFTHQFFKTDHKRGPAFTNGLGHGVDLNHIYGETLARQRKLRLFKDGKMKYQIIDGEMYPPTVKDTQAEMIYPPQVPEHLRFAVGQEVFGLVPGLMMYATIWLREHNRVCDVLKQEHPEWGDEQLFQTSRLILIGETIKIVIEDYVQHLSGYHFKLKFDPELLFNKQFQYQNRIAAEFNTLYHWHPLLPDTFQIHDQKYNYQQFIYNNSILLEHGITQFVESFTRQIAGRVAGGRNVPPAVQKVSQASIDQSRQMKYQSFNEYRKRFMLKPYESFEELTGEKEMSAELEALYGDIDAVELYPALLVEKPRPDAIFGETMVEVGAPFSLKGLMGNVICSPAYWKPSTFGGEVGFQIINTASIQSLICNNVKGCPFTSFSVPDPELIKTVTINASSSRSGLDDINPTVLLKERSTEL
Put plainly: Fluorometric COX-2 inhibitor screening kit. It is filed as biochemical. As to conditions: IC50 ± standard error. On the procedure:
The COX-1 and COX-2 inhibitory activates of the synthesized compounds were tested using fluorometric COX-1 (Catalog Number: ab204698) and COX-2 (Catalog Number: ab283401) inhibitor screening kits (Abcam, United Kingdom). These assays are based on the fluorometric detection of Prostaglandin G2, generated by the COX enzyme. The experiment was conducted according to the manufacturer’s instructions. Each assay consists of a COX Assay Buffer, COX Probe (in DMSO), COX Cofactor (in DMSO), arachidonic acid and NaOH. The COX-1 inhibitor screening kit contains COX-1 ovine enzyme and COX-1 inhibitor SC560 (dissolved in DMSO), while the COX-2 inhibitor screening kit contains COX-2 human recombinant enzyme and COX-2 inhibitor Celecoxib (dissolved in DMSO). The tested compounds were dissolved in DMSO and further diluted five times with the COX Assay Buffer. The Inhibitor Control (IC) was prepared by adding 2 µL of COX-1/COX-2 inhibitor and 8 µL of COX Assay Buffer into assigned wells, while the Solvent Control (SC) was prepared by adding 2 µL of DMSO and 8 µL of COX Assay Buffer into assigned wells and the Sample (S) and Enzyme Control (EC) were prepared by adding 10 µL of diluted tested compounds or COX Assay Buffer into assigned wells. The Reaction Master Mix (COX Assay Buffer, COX Probe, Diluted COX Cofactor and COX-1/COX-2 Enzyme) was prepared according to instructions and 80 µL of the Reaction Master Mix was added into each well. Meanwhile, a diluted arachidonic acid/NaOH solution was prepared and 10 µL was added into each well using a multi-channel pipette to initiate all the reactions at the same time. […] The EC, SC, IC and tested compounds at all concentrations were analyzed in triplicates. Two points (T1 and T2) in the linear range of the plot were chosen and corresponding fluorescence values (RFU1 and RFU2) were obtained. The slope for all samples was calculated by dividing ΔRFU (RFU2-RFU1) by time Δt (T2−T1). The percentage of inhibition was calculated as follows: % Relative Inhibition=Slope of EC−Slope of S/Slope of EC∗100
as §1

As a reminder, the IC50 is the point on the concentration scale where inhibition reaches its midpoint. Turning to `COc1ccc2c(c1)c(CNC(=O)NO)c(C)n2C(=O)c1ccc(Cl)cc1` [Compound 1, N’-hydroxy-N-[(1-(4-chlorobenzoyl)-5-methoxy-2-methyl-3-indolyl)methyl]urea], the figures for the concentration for half-maximal inhibition (IC50) in experiment [1] and in experiment [2] were 5.71 ± 0.15 µM and 18.3 ± 2.17 µM, respectively.
On the same counts, the results for `CC(NC(=O)NO)c1ccc(-c2ccccc2)c(F)c1` (centres unmarked) [Compound 2] are 1.62 ± 0.67 µM and 6.72 ± 0.79 µM.
For the compound `O=C(NO)NCc1ccccc1Nc1c(Cl)cccc1Cl` [Compound 3, N’-hydroxy-N-[(2-(2,6-dichloroanilino)phenyl)methyl]urea], the results for the IC50 in experiment [1] and in experiment [2] were 1.73 ± 0.64 µM and 5.26 ± 0.34 µM, respectively.
On the same counts, the results for `COC(=O)C(Cc1c[nH]cn1)NC(=O)c1cc(C(C)(C)C)c(O)c(C(C)(C)C)c1` (centres unmarked) [Compound 4, 2-(3,5-di-tert-butyl-4-hydroxy-benzoylamino)-3-(1H-imidazol-4-yl)-propionic acid methyl ester] are 8.1 ± 2.12 µM and more than 100 µM.
On the same counts, the results for `COC(=O)CNC(=O)c1cc(C(C)(C)C)c(O)c(C(C)(C)C)c1` [Compound 5, (3,5-di-tert-butyl-4-hydroxy-benzoylamino)-acetic acid methyl ester] are 9.3 ± 1.87 µM and 10.6 ± 0.8 µM.
`C=CCNC(=O)c1cc(C(C)(C)C)c(O)c(C(C)(C)C)c1` [Compound 6, N-allyl-3,5-di-tert-butyl-4-hydroxy-benzamide]: the IC50 in experiment [1] was 53.8 ± 11.9 µM; in experiment [2] it was 6.89 ± 0.83 µM.
On to `C#CCNC(=O)c1cc(C(C)(C)C)c(O)c(C(C)(C)C)c1` [Compound 7, 3,5-di-tert-butyl-4-hydroxy-N-prop-2-ynyl-benzamide], for which the figures for the IC50 in experiment [1] and in experiment [2] were 12.6 ± 3.36 µM and more than 100 µM, respectively.
In the same order, the values of `CCOc1ccccc1NC(=O)N(C)C` [Compound 8, 3-(2-ethoxy-phenyl)-1,1-dimethyl-urea] are 14.5 ± 3.62 µM and more than 100 µM.
For the compound `CN(C)C(=O)Nc1ccccc1C(=O)O` [Compound 9, 2-(3,3-dimethyl-ureido)-benzoic acid], the IC50 in experiment [1] and in experiment [2] was more than 100 µM throughout.
`CCOc1ccccc1NC(=O)Nc1ccc([N+](=O)[O-])cc1` [Compound 10, 1-(2-ethoxy-phenyl)-3-(4-nitro-phenyl)-urea]: the concentration for half-maximal inhibition (IC50) is 13 ± 2.67 µM in experiment [1] and more than 100 µM in experiment [2].
On the same counts, the results for `CC(=O)N(O)C(C)c1ccc(CC(C)C)cc1` (centres unmarked) [Compound 11] are 1.04 ± 0.22 µM and 36.2 ± 3.08 µM.
In the same order, the values of `COc1ccc2cc(C(C)N(O)C(C)=O)ccc2c1` (centres unmarked) [Compound 12, N-hydroxy-N-[1-(6-methoxy-naphthalen-2-yl)-ethyl]-acetamide] are 1.29 ± 0.1 µM and 83.4 ± 4.37 µM.
As for `CC(C)(C)c1cc(C=C2SC(=S)N(N)C2=O)cc(C(C)(C)C)c1O` [Compound 13, 3-amino-5-(3,5-di-tert-butyl-4-hydroxy-benzylidene)-2-thioxo-thiazolidin-4-one], the IC50 in experiment [1] is 13.6 ± 3.54 µM; in experiment [2] it was more than 100 µM.

The record behind these values is PMC10142505, “Synthesis, Evaluation of Enzyme Inhibition and Redox Properties of Potential Dual COX-2 and 5-LOX Inhibitors” (Pharmaceuticals, 2023).
